# Target: T1, P70S6K (T412E mutant, Millipore) (Homo sapiens, UniProt P23443, T412E)
# T1 construct: purchased Millipore
# Experiment: p70S6K enzyme assay
# Format: biochemical
# Settings: class symbol; 3 nM P70S6K, 24 μM ATP; read-out: IC50 (p70S6K)
# In short: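 T412E-mutant P70S6K (3 nM) with 24 μM ATP and 1 μM FITC-AHA-AKRRRLSSLRA-OH S6-derived peptide in 100 mM Hepes pH 7.5, 5 mM MgCl2, 1 mM DTT, 0.015% Brij; 90 min at 25° C, EDTA stop. Phosphorylated product and substrate peptide separated and quantified by microfluidic capillary electrophoresis (Caliper LabChip 3000).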
# T1 sequence (P23443 whole entry T412E): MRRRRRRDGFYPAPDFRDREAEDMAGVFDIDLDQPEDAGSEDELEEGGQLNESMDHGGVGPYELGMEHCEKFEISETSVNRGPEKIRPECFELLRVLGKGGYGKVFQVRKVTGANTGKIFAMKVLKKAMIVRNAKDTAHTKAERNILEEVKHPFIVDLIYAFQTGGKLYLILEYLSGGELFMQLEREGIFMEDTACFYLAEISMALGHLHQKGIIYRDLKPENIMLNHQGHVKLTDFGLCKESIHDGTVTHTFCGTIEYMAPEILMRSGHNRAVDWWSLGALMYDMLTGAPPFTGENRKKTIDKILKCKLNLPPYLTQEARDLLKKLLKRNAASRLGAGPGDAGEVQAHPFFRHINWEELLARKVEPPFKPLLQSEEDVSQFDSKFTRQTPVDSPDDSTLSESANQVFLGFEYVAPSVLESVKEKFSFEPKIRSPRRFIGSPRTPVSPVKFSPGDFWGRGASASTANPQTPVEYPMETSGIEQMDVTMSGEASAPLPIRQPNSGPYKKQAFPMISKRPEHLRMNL
row,Compound,IC50 [nM]
1,"Cc1cc(Nc2ncnc3[nH]ccc23)c(C(=O)NCc2cccc(Cl)c2)s1 [Example 178, 5-Methyl-3-(7H-pyrrolo[2,3-d]pyrimidin-4-ylamino)-thiophene-2-carboxylic acid 3-chloro-benzylamide]",100 to 1000
2,"O=C(NCCc1cccc(Cl)c1)c1sccc1Nc1ncnc2[nH]ccc12 [Example 182, 3-(7H-Pyrrolo[2,3-d]pyrimidin-4-ylamino)-thiophene-2-carboxylic acid [2-(3-chloro-phenyl)-ethyl]-amide]",< 100
3,"O=C(NCCNCc1ccccc1)c1sccc1Nc1ncnc2[nH]ccc12 [Example 183, 3-(7H-Pyrrolo[2,3-d]pyrimidin-4-ylamino)-thiophene-2-carboxylic acid (2-benzylamino-ethyl)-amide]",< 100
4,"CC(C)(C)OC(=O)N1CCCC(NC(=O)c2sccc2Nc2ncnc3[nH]ccc23)C1 (stereo not shown) [Example 184, 3-{[3-(7H-Pyrrolo[2,3-d]pyrimidin-4-ylamino)-thiophene-2-carbonyl]-amino}-piperidine-1-carboxylic acid tert-butyl ester]",100 to 1000
5,"CNCCNC(=O)c1sccc1Nc1ncnc2[nH]ccc12 [Example 185, 3-(7H-Pyrrolo[2,3-d]pyrimidin-4-ylamino)-thiophene-2-carboxylic acid (2-methylamino-ethyl)-amide]",100 to 1000
6,"O=C(NC1CCCNC1)c1sccc1Nc1ncnc2[nH]ccc12 (stereo not shown) [Example 186, 3-(7H-Pyrrolo[2,3-d]pyrimidin-4-ylamino)-thiophene-2-carboxylic acid piperidin-3-ylamide]",< 100
7,"Cc1c[nH]c2ncnc(Nc3ccsc3C(=O)NCc3cccc(Cl)c3)c12 [Example 187, 3-(5-Methyl-7H-pyrrolo[2,3-d]pyrimidin-4-ylamino)-thiophene-2-carboxylic acid 3-chloro-benzylamide]",< 100

# The next lines start with the values.
row,IC50 [nM],Compound
1,< 100,"O=C(NCCc1ccc(F)cc1)c1sccc1Nc1ncnc2[nH]ccc12 [Example 179, 3-(7H-Pyrrolo[2,3-d]pyrimidin-4-ylamino)-thiophene-2-carboxylic acid [2-(4-fluoro-phenyl)-ethyl]-amide]"
2,< 100,"O=C(NCCc1ccc(Br)cc1)c1sccc1Nc1ncnc2[nH]ccc12 [Example 180, 3-(7H-Pyrrolo[2,3-d]pyrimidin-4-ylamino)-thiophene-2-carboxylic acid [2-(4-bromo-phenyl)-ethyl]-amide]"
3,< 100,"Cc1ccccc1CCNC(=O)c1sccc1Nc1ncnc2[nH]ccc12 [Example 181, 3-(7H-Pyrrolo[2,3-d]pyrimidin-4-ylamino)-thiophene-2-carboxylic acid (2-o-tolyl-ethyl)-amide]"

# From US9023847B2, “Azaheterocyclic compounds” (Merck Patent GmbH, priority 2009, dated 2015)
